Experimental data reported in article PMC11480954, “Molecular determinants of resurgent sodium currents mediated by Navβ4 peptide and A-type FHFs” (Frontiers in Molecular Neuroscience, 2024).

Legend:
[1] = test system: Nav1.8; details: n = 6, ref Xiao et al., 2022; cited from earlier work
Description: Increased INaR may result from destabilizing fast inactivation or increasing “window currents” of VGSCs ([Xiao et al., 2019]).

[2] = test system: Nav1.8 N390K; test: Gating properties, Nav1.8 mutant N390K; type: cell-based, human; details: 1 mM FHF4A peptide
Experimental: (§1) HEK293 cells and ND7/23 cells were grown under standard tissue culture conditions (5% CO2 and 37°C) in DMEM supplemented with 10% FBS, 1% penicillin and 1% streptomycin. Using Invitrogen Lipofectamine 2000, human Nav1.7 R1599P (rpNav1.7) and the mutant constructs were transiently co-transfected with Navβ1 and Navβ2 into HEK293 cells. The constructs human Nav1.8 and mutants were transiently co-transfected with FHF2B or FHF4A into ND7/23 cells. The lipofectamine-DNA mixture was added to the cell culture medium and left for 3 h after which the cells were washed with fresh medium. Cells with green fluorescent protein fluorescence were selected for whole-cell patch-clamp recordings 36–72 h after transfection.
(§2) Whole-cell voltage-clamp recordings were performed at room temperature (~21°C) using an EPC-10 amplifier and the Pulse program (HEKA Electronics). Fire-polished electrodes (0.7–1.0 MΩ) were fabricated from 1.7 mm capillary glass using a P-97 puller (Sutter Instruments), and the tips were coated with sticky wax (KerrLab) to reduce electrode capacitance and enable increased series resistance compensation. The pipette solution contained (in mM) 140 CsF, 1.1 EGTA, 10 NaCl, and 10 HEPES, pH 7.3. The bathing solution was (in mM) 130 mM NaCl, 30 mM TEA chloride, 1 mM MgCl2, 3 mM KCl, 1 mM CaCl2, 10 mM HEPES, and 10 mM d-glucose, pH 7.3 (adjusted with NaOH). […] The offset potential was zeroed before contacting the cell. After establishing the whole-cell recording configuration, the resting potential was held at −120 or −100 mV for 5 min to allow adequate equilibration between the micropipette solution and the cell interior. Linear leak subtraction, based on resistance estimates from four to five hyperpolarizing pulses applied before the depolarizing test potential, was used for all voltage clamp recordings. Membrane currents were usually filtered at 5 kHz and sampled at 20 kHz. […] Voltage errors were minimized using 80–95% series resistance compensation, and the capacitance artifact was canceled using the computer-controlled circuitry of the patch clamp amplifier. […] The concentration-dependent curves were fitted to a hill equation: Y = Bottom + (Top-Bottom)/(1 + 10^((LogEC50-X)*HillSlope)).
(§3) Families of sodium currents were induced by 50-ms depolarizing steps to various potentials ranging from −120 (or −100) to +40 mV in 5-mV increments. The conductance was calculated using the equation G(Nav) = I/(V - Vrev) in which I, V, and Vrev represent inward current value, membrane potential, and reversal potential, respectively. […]

[3] = test system: human Nav1.8; test: Gating properties (steady-state activation, inactivation, INaP), Nav1.8; type: cell-based
Experimental: as §1, §2
(§4) Families of sodium currents were induced by 50-ms depolarizing steps to various potentials ranging from −120 (or −100) to +40 mV in 5-mV increments. The conductance was calculated using the equation G(Nav) = I/(V - Vrev) in which I, V, and Vrev represent inward current value, membrane potential, and reversal potential, respectively.
(§5) Voltage dependence of steady-state inactivation was estimated using a standard double pulse protocol in which sodium currents were induced by a 50-ms depolarizing potential of 0 mV following a 500-ms prepulse at potentials that ranged from −150 to +10 mV with a 10-mV increment. Currents were plotted as a fraction of the maximum peak current. To obtain the midpoint voltages (V1/2) and slope factor (k), the curves of both steady-state activation and inactivation were fitted to a Boltzmann function.

[4] = test system: Nav1.8; details: ref Xiao et al., 2022; cited from earlier work
Description: Next, we investigated if FHF4A, another INaR mediator reported recently ([White et al., 2019]; [Xiao et al., 2022]), shares the receptor site in VGSCs with Navβ4 peptide. […] They consist of a long N-terminus, an FGF-like β-trefoil core, and a short C-terminus ([Goldfarb, 2005]). They display an intrinsic capability to generate INaR, to a varying extent, in Nav1.8 and Nav1.9.

[5] = test system: Nav1.8 N390K; test: INaR, Nav1.8 mutant N390K; type: cell-based, human; details: 1 mM FHF4A peptide
Experimental: as §1
(§6) Whole-cell voltage-clamp recordings were performed at room temperature (~21°C) using an EPC-10 amplifier and the Pulse program (HEKA Electronics). […]
(§7) INaR: INaR was elicited by repolarizing voltage steps from +20 to −80 mV for 100 ms (or 200 ms) in −5 mV increments, following a 20-ms depolarizing potential of +30 mV. […] The relative INaR in Nav1.7 and Nav1.8 was calculated by normalizing to the peak transient current elicited at −10 or 0 mV.

[6] = test system: Nav1.8 F1710K; test: Gating properties, Nav1.8 mutant F1710K; type: cell-based, human
Experimental: as §1, §2, §4, §5

[7] = test system: Nav1.8 Y1717K; test: INaR, Nav1.8 mutant Y1717K; type: cell-based, human; details: 1 mM FHF4A peptide, + FHF2B, ND7/23; n = 10; p > 0.05 vs Nav1.8
Experimental: as §1, §6, §7

[8] = test system: Nav1.8 N891S; test: Gating properties, Nav1.8 mutant N891S; type: cell-based, human; details: 1 mM FHF4A peptide
Experimental: as §1, §2, §3

[9] = test system: Nav1.8 Y387K; test: Gating properties, Nav1.8 mutant Y387K; type: cell-based, human; details: 1 mM FHF4A peptide
Experimental: as §1, §2, §3

[10] = test system: Nav1.8; details: ref Xiao et al., 2022; cited from earlier work; remark: listed apart in the source
Description: This mechanism requires that the peptides compete with the fast inactivation particle to block open VGSCs at strong positive potentials and unblocks upon repolarization so that the channels can reconduct ([Cannon and Bean, 2010]).

[11] = test system: Nav1.8 Y387K; test: INaR, Nav1.8 mutant Y387K; type: cell-based, human; details: 1 mM FHF4A peptide, + FHF2B, ND7/23; n = 8; p > 0.05 vs Nav1.8
Experimental: as §1, §6, §7

[12] = test system: Nav1.8 Y1717K; test: Gating properties, Nav1.8 mutant Y1717K; type: cell-based, human
Experimental: as §1, §2, §4, §5

[13] = test system: Nav1.8 N891S; test: INaR, Nav1.8 mutant N891S; type: cell-based, human; details: 1 mM FHF4A peptide, + FHF2B, ND7/23; −80 to +20 mV; n = 6
Experimental: as §1, §6, §7

[14] = Nav1.8 + FHF2B, ND7/23, 1 mM, held at −100 mV, scramble n = 8, FHF4A peptide n = 10, p > 0.05

In the case of “AAAIASGLIRQKRQAREQHW [FHF4A peptide, synthetic 20-residue peptide from FHF4A A2 – W21]”, the “FHF4A peptide mediated Nav1.8 INaR without FHF2B (control)” value [1] is given as 2.5% ± 0.4%, the “V1/2 of steady-state inactivation, N390K vs Nav1.8” value [2] is given as “None of four lysine-mutations significantly changed the V1/2 value of steady-state inactivation” and the “Activation (V1/2), N390K” value ([2]; + FHF2B, ND7/23, n = 7) is given as −9.7 ± 1.8 (7) mV. For the same sequence, the “Inactivation (V1/2), N390K” value ([2]; + FHF2B, ND7/23, n = 7) was −33.5 ± 1.0 (7) mV, the “INaP, N390K” value ([2]; end of 50-ms pulse of +10 mV, normalized to peak transient current, n = 7, *p < 0.05) was 5.6 ± 2.2^* (7) % and the “effect on steady-state activation or inactivation” value ([3]; Nav1.8 + FHF2B, ND7/23, FHF4A peptide) was “did not alter steady-state activation or inactivation”. The “V1/2 (activation), Nav1.8, Figure 6” value [3, 14] was −12.5 ± 1.7 mV, the “V1/2 (inactivation), Nav1.8, Figure 6” value [3, 14] was −42.4 ± 4.3 mV and the “INaP, Nav1.8” value ([3]; end of 50-ms pulse of +10 mV, normalized to peak transient current, 1 mM FHF4A peptide, n = 9) was 3.0 ± 1.8 (9) %. For the same sequence, the “Nav1.8 INaR reconstitution by FHF4A A2 – W21 peptide” value [4] was “could reconstitute the Nav1.8 INaR mediated by full-length FHF4A”, the “voltage dependence of INaR, N390K” value [5] was “slightly shifted the voltage dependence of Nav1.8 INaR to more positive potentials” and the “average INaR amplitude at −15 mV, N390K” value ([5]; + FHF2B, ND7/23, n = 7, p > 0.05 vs Nav1.8) was 4.4% ± 0.7%. For the same sequence, the “V1/2 of steady-state inactivation, F1710K vs Nav1.8” value ([6]; 1 mM FHF4A peptide) was “None of four lysine-mutations significantly changed the V1/2 value of steady-state inactivation”, the “Inactivation (V1/2), F1710K” value ([6]; 1 mM FHF4A peptide, + FHF2B, ND7/23, n = 7) was −41.1 ± 5.5 (7) mV and the “Activation (V1/2), F1710K” value ([6]; 1 mM FHF4A peptide, + FHF2B, ND7/23, n = 7, ***p < 0.0001) was 19.9 ± 2.0*** (7) mV. For the same sequence, the “INaP, F1710K” value ([6]; end of 50-ms pulse of +10 mV, normalized to peak transient current, 1 mM FHF4A peptide, n = 6, **p < 0.01) was 0.8 ± 0.9^** (6) %, the “positive shift of voltage dependence of activation by F1710K” value ([6]; vs Nav1.8, 1 mM FHF4A peptide) was 31.0 mV and the “average INaR amplitude at −15 mV, Y1717K” value [7] was 4.6% ± 0.8%. The “steady-state activation or inactivation, N891S vs Nav1.8” value [8] was “no effect on steady-state activation or inactivation”, the “Activation (V1/2), N891S” value ([8]; + FHF2B, ND7/23, n = 6) was −8.6 ± 2.1 (6) mV and the “Inactivation (V1/2), N891S” value ([8]; + FHF2B, ND7/23, n = 6) was −36.4 ± 0.7 (6) mV. For the same sequence, the “INaP, N891S” value ([8]; end of 50-ms pulse of +10 mV, normalized to peak transient current, n = 6, ***p < 0.0001) was 1.1 ± 0.5^*** (6) %, the “V1/2 of steady-state inactivation, Y387K vs Nav1.8” value [9] was “None of four lysine-mutations significantly changed the V1/2 value of steady-state inactivation” and the “Activation (V1/2), Y387K” value ([9]; + FHF2B, ND7/23, n = 10) was −9.9 ± 2.1 (10) mV. For the same sequence, the “Inactivation (V1/2), Y387K” value ([9]; + FHF2B, ND7/23, n = 10) was −30.7 ± 1.5 (10) mV, the “INaP, Y387K” value ([9]; end of 50-ms pulse of +10 mV, normalized to peak transient current, n = 8) was 3.6 ± 0.9 (8) % and the “effect on fast inactivation after Nav1.8 opens” value [10] was “accelerates fast inactivation after Nav1.8 opens”. For the same sequence, the “average INaR amplitude at −15 mV, Y387K” value [11] was 5.3% ± 0.5%, the “V1/2 of steady-state inactivation, Y1717K vs Nav1.8” value ([12]; 1 mM FHF4A peptide) was “None of four lysine-mutations significantly changed the V1/2 value of steady-state inactivation” and the “Inactivation (V1/2), Y1717K” value ([12]; 1 mM FHF4A peptide, + FHF2B, ND7/23, n = 10) was −38.4 ± 1.0 (10) mV. The “Activation (V1/2), Y1717K” value ([12]; 1 mM FHF4A peptide, + FHF2B, ND7/23, n = 10, ***p < 0.0001) was 7.3 ± 1.5*** (10) mV, the “INaP, Y1717K” value ([12]; end of 50-ms pulse of +10 mV, normalized to peak transient current, 1 mM FHF4A peptide, n = 10) was 5.4 ± 3.8 (10) % and the “positive shift of voltage dependence of activation by Y1717K” value ([12]; vs Nav1.8, 1 mM FHF4A peptide) was 18.4 mV. The “INaR, N891S” value [13] was “no INaR was induced”.
